For 36 compounds, EC50 and IC50 results are on record in patent publication US7868204B2, “Inhibitors of histone deacetylase” (MethylGene Inc., priority 2001, dated 2011).

Each structure is given as a SMILES string. Where two headings read alike, the source gives them in different places.

The subject of assay [1] is acetylated histone H-4 in T24 human bladder cancer cells. In words: Histone H4 acetylation in whole cells by immunoblots. The following applies: 16 h. The assay is classed as cell-based. On the procedure:
T24 human bladder cancer cells growing in culture were incubated with HDAC inhibitors for 16 h. […] of total histone protein was loaded onto SDS/PAGE and transferred to nitrocellulose membranes. Membranes were probed with polyclonal antibodies specific for acetylated histone H-4 (Upstate Biotech Inc.), followed by horse radish peroxidase conjugated secondary antibodies (Sigma). Enhanced Chemiluminescence (ECL) (Amersham) detection was performed using Kodak films (Eastman Kodak). Acetylated H-4 signal was quantified by densitometry.

A further assay deals with HCT116 cells. Description: MTT assay. Format: cell-based. The following applies: Homo sapiens, HCT116 cells, 72 hours. In outline:
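Cells plated one day before dosing, then exposed to compound 72 h at 37 °C, 5% CO2. MTT at 0.5 mg/ml final for 4 h, solubilized in DMF/SDS buffer pH 4.7; OD converted to cell number from a standard growth curve.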

The target in assay [2] is T1, cloned recombinant human HDAC-1 (Homo sapiens, UniProt Q13547).
T1 construct: made in house; host or cells: Baculovirus insect cell expression system
T1 sequence (Q13547 whole entry): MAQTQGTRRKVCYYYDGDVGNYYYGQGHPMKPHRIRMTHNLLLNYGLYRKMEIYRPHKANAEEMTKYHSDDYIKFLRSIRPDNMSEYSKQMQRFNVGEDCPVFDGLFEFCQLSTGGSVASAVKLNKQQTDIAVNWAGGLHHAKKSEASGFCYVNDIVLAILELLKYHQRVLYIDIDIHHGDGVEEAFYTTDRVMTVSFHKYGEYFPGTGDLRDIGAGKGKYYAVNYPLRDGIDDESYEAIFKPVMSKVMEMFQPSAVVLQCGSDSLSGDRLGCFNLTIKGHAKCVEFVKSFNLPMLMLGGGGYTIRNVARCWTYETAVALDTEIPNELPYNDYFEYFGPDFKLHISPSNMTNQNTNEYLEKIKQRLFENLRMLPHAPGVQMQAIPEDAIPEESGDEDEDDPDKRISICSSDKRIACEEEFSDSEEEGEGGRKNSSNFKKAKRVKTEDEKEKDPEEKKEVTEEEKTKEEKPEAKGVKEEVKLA
Description: Human HDAC-1 enzyme inhibition, Assay 1 ([3H]-acetylated histone substrate, scintillation counting). Format: biochemical. A digest of the protocol: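 Recombinant human HDAC-1 from baculovirus-infected insect cells, preincubated with compound 30 min at 4° C. before reaction. Released [3H]-acetic acid extracted with ethyl acetate and counted by scintillation. IC50 taken from dose-response curves as concentration giving half-maximal inhibition.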

Where [3] appears, read: Table 5d, read-out: HDAC-1 IC50.
[4] abbreviates: Table 5c, read-out: Human HDAC-1 IC50.
The mark [5] stands for this setting: Table 5F, read-out: Human HDAC-1 IC50.

`Nc1ccccc1NC(=O)/C=C/c1ccc(NCc2ccncc2)nc1` [Cpd 91]: the EC50 in assay [1] (T-24, Table 5c, read-out: H4Ac (T24) EC50) was 5 µM. The 50% inhibitory concentration (IC50) in the assay with HCT116 cells (HCT-116, 72 h, Table 5c) came out at 7 µM.

For the compound `COc1ccc(NCc2ccc(C(=O)Nc3ccccc3N)cc2)cc1OC` [Cpd 424b], the EC50 in assay [1] (T-24, Table 5F, read-out: H4 Ac (T24) EC50) came out at 1 µM. The half-maximal inhibitory concentration (IC50) in the assay on HCT116 cells (HCT-116, 72 h, Table 5F) turned out to be 0.4 µM.

In the case of `COc1cc(OCc2ccc(/C=C/C(=O)Nc3ccccc3N)cc2)cc(OC)c1OC` [Cpd 497, N-(2-Amino-phenyl)-3-[4-(3,4,5-trimethoxy-phenoxymethyl)-phenyl]-acrylamide], the IC50 in assay [2] (setting [3]) was found to be 15 µM; with HCT116 cells (HCT-116, Table 5d), 6 µM.

Consider `Nc1ccccc1NC(=O)c1ccc(CNc2nc(NCCc3ccc(Cl)cc3)nc(NC3CC3)n2)cc1` [Cpd 475], for which the IC50 came out at 0.6 µM in assay [2] (Table 5b, read-out: Human HDAC-1 IC50) and 2 µM in the assay on HCT116 cells (HCT-116, 72 h, Table 5b).

In the case of `Nc1ccccc1NC(=O)/C=C/c1ccc(NCCCn2ccnc2)nc1` [Cpd 97, N-(2-aminophenyl)-3-[6-(3-imidazol-1-yl-propylamino)-pyridin-3-yl]-acrylamide], the IC50 in assay [2] (setting [4]) turned out to be 10 µM; in the assay with HCT116 cells (HCT-116, 72 h, Table 5c) it was 12 µM.

For the compound `Nc1ccccc1NC(=O)/C=C/c1ccc(CNc2cccc3ccccc23)cc1` [Cpd 558, N-(2-Amino-phenyl)-3-[4-(naphthalen-1-ylaminomethyl)-phenyl]-acrylamide], the IC50 in assay [2] (setting [3]) was found to be 7 µM; in the assay on HCT116 cells (HCT-116, Table 5d), 10 µM.

As for `Nc1ccccc1NC(=O)/C=C/c1ccc(CNc2cc(Cl)cc(Cl)c2)cc1` [Cpd 535, N-(2-Amino-phenyl)-3-{4-[(3,5-dichloro-phenylamino)-methyl]-phenyl}-acrylamide], the half-inhibitory concentration (IC50) in assay [2] (setting [3]) amounted to 4 µM; in the assay with HCT116 cells (HCT-116, Table 5d), 6 µM.

With `Nc1ccccc1NC(=O)/C=C/c1ccc(CNc2cccc(OCCO)c2)cc1` [Cpd 549, N-(2-Amino-phenyl)-3-(4-{[3-(2-hydroxy-ethoxy)-phenylamino]-methyl}-phenyl)-acrylamide], the IC50 in assay [2] (setting [3]) amounted to 4 µM; with HCT116 cells (HCT-116, Table 5d), 19 µM.

As for `COc1ccc(CNc2ccc(C3CC3C(=O)Nc3ccccc3N)cn2)cc1` (stereo not drawn) [Cpd 576], the IC50 in assay [2] (setting [5]) was 5 µM; in the assay with HCT116 cells (HCT-116, 72 h, Table 5F), 6 µM.

On to `COc1cc(/C=C/C(=O)Nc2ccccc2N)ccc1CNc1cc(OC)c(OC)c(OC)c1` [Cpd 484], for which the IC50 in assay [2] (setting [3]) was 20 µM; in the assay with HCT116 cells (HCT-116, Table 5d), 12 µM.

Consider `Nc1ccccc1NC(=O)/C=C/c1ccc(CNc2ccc(-c3ccccc3)cc2)cc1` [Cpd 511, N-(2-Amino-phenyl)-3-[4-(biphenyl-4-ylaminomethyl)-phenyl]-acrylamide], for which the half-inhibitory concentration (IC50) in assay [2] (setting [3]) is 4 µM; with HCT116 cells (HCT-116, Table 5d), more than 25 µM.

Consider `Nc1ccccc1NC(=O)/C=C/c1ccc(CNc2ccc(I)cc2)cc1` [Cpd 547, N-(2-Amino-phenyl)-3-{4-[(4-iodo-phenylamino)-methyl]-phenyl}-acrylamide], for which the IC50 in assay [2] (setting [3]) turned out to be 4 µM; with HCT116 cells (HCT-116, Table 5d) it was 8 µM.

For `COc1cc(NCc2ccc(C(=O)Nc3ccccc3N)cn2)cc(OC)c1OC` [Cpd 445, N-(2-Amino-phenyl)-6-[(3,4,5-trimethoxy-phenylamino)-methyl]-nicotinamide], the IC50 amounted to 16 µM in assay [2] (setting [5]) and 6 µM with HCT116 cells (HCT-116, 72 h, Table 5F).

As to `Nc1ccccc1NC(=O)c1ccc(-c2noc(-c3ccccc3)n2)cc1` [Cpd 352, N-(2-Amino-phenyl)-4-(5-phenyl-[1,2,4]oxadiazol-3-yl)-benzamide], the IC50 in assay [2] (setting [5]) was 16 µM; in the assay with HCT116 cells (HCT-116, 72 h, Table 5F) it was 9 µM.

Consider `Nc1ccccc1NC(=O)/C=C/c1ccc(CNc2ccc(Cl)cc2)cc1` [Cpd 552, N-(2-Amino-phenyl)-3-{4-[(4-chloro-phenylamino)-methyl]-phenyl}-acrylamide], for which the half-inhibitory concentration (IC50) in assay [2] (setting [3]) amounted to 4 µM; with HCT116 cells (HCT-116, Table 5d) it was 22 µM.

Take `COc1cc(CCc2ccc(/C=C/C(=O)Nc3ccccc3N)cc2)cc(OC)c1OC` [Cpd 540, N-(2-Amino-phenyl)-3-{4-[2-(3,4,5-trimethoxy-phenyl)-ethyl]-phenyl}-acrylamide]: the IC50 turned out to be 10 µM in assay [2] (setting [3]) and 10 µM in the assay on HCT116 cells (HCT-116, Table 5d).

In the case of `CC(=O)NCc1cccc(NCc2ccc(/C=C/C(=O)Nc3ccccc3N)cc2)c1` [Cpd 533, 3-(4-{[3-(Acetylamino-methyl)-phenylamino]-methyl}-phenyl)-N-(2-amino-phenyl)-acrylamide], the IC50 was 5 µM in assay [2] (setting [3]) and 11 µM in the assay with HCT116 cells (HCT-116, Table 5d).

In the case of `COc1cc(NCc2ccc(/C=C/C(=O)Nc3cccc(N)c3N)cc2)cc(OC)c1OC` [Cpd 564], the IC50 in assay [2] (setting [3]) is more than 25 µM; in the assay on HCT116 cells (HCT-116, Table 5d) it was more than 25 µM.

For the compound `Nc1ccccc1NC(=O)/C=C/c1ccc(CCNC(=O)OCc2cccnc2)cc1` [Cpd 105], the IC50 was 16 µM in assay [2] (setting [4]) and 14 µM in the assay with HCT116 cells (HCT-116, 72 h, Table 5c).

Consider `Nc1ccccc1NC(=O)/C=C/c1ccc(CNc2cc([N+](=O)[O-])cc([N+](=O)[O-])c2)cc1` [Cpd 495], for which the IC50 in assay [2] (setting [3]) was determined as 4 µM; with HCT116 cells (HCT-116, Table 5d) it was 7 µM.

As to `Cc1ccc(NCc2ccc(C(=O)Nc3ccccc3N)cc2)c(C)c1` [Cpd 409, N-(2-Amino-phenyl)-4-[(2,4-dimethyl-phenylamino)-methyl]-benzamide], the IC50 was determined as 3 µM in assay [2] (setting [5]) and 1 µM in the assay on HCT116 cells (HCT-116, 72 h, Table 5F).

On to `COc1cc(CNCc2ccc(/C=C/C(=O)Nc3ccccc3N)cc2)cc(OC)c1OC` [Cpd 59, N-(2-aminophenyl)-3-{4-[(3,4,5-trimethoxy-benzylamino)-methyl]-phenyl}-acrylamide], for which the IC50 in assay [2] (setting [4]) turned out to be 12 µM; in the assay with HCT116 cells (HCT-116, 72 h, Table 5c), 22 µM.

For `COc1cc(NCc2ccc(/C=C/C(=O)Nc3cccc(O)c3N)cc2)cc(OC)c1OC` [Cpd 561], the IC50 in assay [2] (setting [3]) was more than 25 µM; with HCT116 cells (HCT-116, Table 5d), more than 25 µM.

For the compound `COc1cc(NCc2ccc(/C=C/C(=O)Nc3ccccc3N)cc2N)cc(OC)c1OC` [Cpd 568], the IC50 in assay [2] (setting [3]) is more than 25 µM; in the assay on HCT116 cells (HCT-116, Table 5d) it was 39 µM.

Regarding `Nc1ccccc1NC(=O)/C=C/c1ccc(CNc2cccc(-c3nnn[nH]3)c2)cc1` [Cpd 543, N-(2-Amino-phenyl)-3-(4-{[3-(1H-tetrazol-5-yl)-phenylamino]-methyl}-phenyl)-acrylamide], the IC50 is 15 µM in assay [2] (setting [3]) and more than 25 µM with HCT116 cells (HCT-116, Table 5d).

Consider `Nc1ccccc1NC(=O)c1ccc(C#CC2(O)CCCCC2)nc1` [Cpd 463, N-(2-Amino-phenyl)-6-(1-hydroxy-cyclohexylethynyl)-nicotinamide], for which the IC50 was found to be 12 µM in assay [2] (setting [5]) and 6 µM in the assay with HCT116 cells (HCT-116, 72 h, Table 5F).

Turning to `COc1cc(/C=C/c2ccc(/C=C/C(=O)Nc3ccccc3N)cc2)cc(OC)c1OC` [Cpd 536, N-(2-Amino-phenyl)-3-{4-[2-(3,4,5-trimethoxy-phenyl)-vinyl]-phenyl}-acrylamide], the IC50 worked out at 18 µM in assay [2] (setting [3]) and 9 µM in the assay with HCT116 cells (HCT-116, Table 5d).

With `Nc1ccccc1NC(=O)/C=C/c1ccc(CNc2ccc(N3CCOCC3)cc2)cc1` [Cpd 503, N-(2-Amino-phenyl)-3-{4-[(4-morpholin-4-yl-phenylamino)-methyl]-phenyl}-acrylamide], the concentration for half-maximal inhibition (IC50) in assay [2] (setting [3]) is 5 µM; in the assay on HCT116 cells (HCT-116, Table 5d), more than 25 µM.

With `Cc1ccc(CNc2ccc(/C=C/C(=O)Nc3ccccc3N)cn2)cc1` [Cpd 117, N-(2-Amino-phenyl)-3-[6-(4-methyl-benzylamino)-pyridin-3-yl]-acrylamide], the IC50 in assay [2] (setting [4]) was found to be 7 µM; with HCT116 cells (HCT-116, 72 h, Table 5c), 3 µM.

On to `N#C/N=C(\NCc1ccc(C(=O)Nc2ccccc2N)cc1)Nc1ccncc1` [Cpd 240], for which the IC50 in assay [2] (setting [5]) is 1.8 µM; in the assay on HCT116 cells (HCT-116, 72 h, Table 5F), 10 µM.

With `Nc1ccccc1NC(=O)/C=C/c1ccc(CNc2ccc([N+](=O)[O-])cc2)cc1` [Cpd 550, N-(2-Amino-phenyl)-3-{4-[(4-nitro-phenylamino)-methyl]-phenyl}-acrylamide], the IC50 in assay [2] (setting [3]) was determined as 4 µM; in the assay with HCT116 cells (HCT-116, Table 5d), 15 µM.

Consider `COc1cc(NCc2ccc(C(=O)Nc3ccccc3N)cc2)c(C(=O)O)cc1OC` [Cpd 406, 2-[4-(2-Amino-phenylcarbamoyl)-benzylamino]-4,5-dimethoxy-benzoic acid], for which the half-maximal inhibitory concentration (IC50) in assay [2] (setting [5]) came out at 3 µM; in the assay on HCT116 cells (HCT-116, 72 h, Table 5F), 11 µM.

Take `Nc1ccccc1NC(=O)/C=C/c1ccc(CNc2ccc(F)cc2)cc1` [Cpd 554, N-(2-Amino-phenyl)-3-{4-[(4-fluoro-phenylamino)-methyl]-phenyl}-acrylamide]: the IC50 was 15 µM in assay [2] (setting [3]) and 12 µM with HCT116 cells (HCT-116, Table 5d).

Consider `Nc1ccccc1NC(=O)/C=C/c1ccc(CNc2ccc(OC(F)(F)F)cc2)cc1` [Cpd 504, N-(2-Amino-phenyl)-3-{4-[(4-trifluoromethoxy-phenylamino)-methyl]-phenyl}-acrylamide], for which the IC50 in assay [2] (setting [3]) was 5 µM; in the assay on HCT116 cells (HCT-116, Table 5d), more than 25 µM.

Consider `Nc1ccccc1NC(=O)/C=C/c1ccc(CNc2cccc(Cl)c2)cc1` [Cpd 553, N-(2-Amino-phenyl)-3-{4-[(3-chloro-phenylamino)-methyl]-phenyl}-acrylamide], for which the IC50 in assay [2] (setting [3]) amounted to 4 µM; in the assay with HCT116 cells (HCT-116, Table 5d), 12 µM.

For `Nc1ccccc1NC(=O)/C=C/c1ccc(CNc2cccc(CO)c2)cc1` [Cpd 530, N-(2-Amino-phenyl)-3-{4-[(3-hydroxymethyl-phenylamino)-methyl]-phenyl}-acrylamide], the half-maximal inhibitory concentration (IC50) in assay [2] (setting [3]) is 8 µM; in the assay on HCT116 cells (HCT-116, Table 5d), 9 µM.
